Measured values published in patent US20130267516A1, “SUBSTITUTED CYCLOPENTYL-AZINES AS CASR-ACTIVE COMPOUNDS” (LEO PHARMA A/S, priority 2010, published 2013).

Target: T1, human CaSR (Homo sapiens, UniProt P41180)
T1 construct: The ORF coding for the human CaSR (genebank: NM_000388)
T1 sequence (P41180 20-1078): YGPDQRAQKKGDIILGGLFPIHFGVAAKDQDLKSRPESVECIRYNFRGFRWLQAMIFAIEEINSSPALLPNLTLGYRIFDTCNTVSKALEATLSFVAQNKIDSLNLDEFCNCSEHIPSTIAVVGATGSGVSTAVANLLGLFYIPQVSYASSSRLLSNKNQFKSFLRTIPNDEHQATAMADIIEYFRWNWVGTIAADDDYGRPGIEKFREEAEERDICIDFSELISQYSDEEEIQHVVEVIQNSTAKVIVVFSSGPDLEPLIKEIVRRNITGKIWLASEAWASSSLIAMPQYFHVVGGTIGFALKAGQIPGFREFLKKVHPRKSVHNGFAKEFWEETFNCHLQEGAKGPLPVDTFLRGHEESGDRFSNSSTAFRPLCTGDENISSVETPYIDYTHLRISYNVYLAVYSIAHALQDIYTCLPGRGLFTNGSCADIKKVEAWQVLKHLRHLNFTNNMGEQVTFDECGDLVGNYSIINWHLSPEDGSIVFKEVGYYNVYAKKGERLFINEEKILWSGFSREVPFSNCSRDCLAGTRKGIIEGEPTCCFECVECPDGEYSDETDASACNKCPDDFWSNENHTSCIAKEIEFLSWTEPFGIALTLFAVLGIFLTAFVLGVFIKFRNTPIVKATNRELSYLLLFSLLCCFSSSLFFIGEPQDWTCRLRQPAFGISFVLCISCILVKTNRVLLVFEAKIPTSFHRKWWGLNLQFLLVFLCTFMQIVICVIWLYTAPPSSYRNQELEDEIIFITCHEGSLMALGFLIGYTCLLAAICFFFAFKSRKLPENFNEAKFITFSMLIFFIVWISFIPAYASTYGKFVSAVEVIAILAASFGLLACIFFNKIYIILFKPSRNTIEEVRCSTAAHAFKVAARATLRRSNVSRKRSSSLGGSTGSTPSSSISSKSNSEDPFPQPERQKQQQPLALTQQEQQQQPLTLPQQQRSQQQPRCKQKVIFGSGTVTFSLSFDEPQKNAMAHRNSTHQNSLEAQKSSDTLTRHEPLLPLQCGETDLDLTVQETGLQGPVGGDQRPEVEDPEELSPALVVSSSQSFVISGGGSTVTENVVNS
Test: Functional whole cell assay (modulation of human CaSR), IP1 accumulation in CHO-K1 cells
Assay type: cell-based
Conditions: CHO-K1 cells stably expressing human CaSR, final Ca2+ 1.9 mM, IP1 readout; concentration giving 50% of maximum agonistic response
Excerpt: The assay investigates a compound's functional ability to act as a biological positive modulator on the human CaSR. Activation of the receptor expressed on CHO-K1 cells is detected through the G alpha q pathway, the activation of phospholipase C and the accumulation of intracellular inositol phosphate (IP) as described earlier [Sandrine Ferry, Bruno Chatel, Robert H. Dodd, Christine Lair, Danielle Gully, Jean-Pierre Maffrand, and Martial Ruat. Effects of Divalent Cations and of a Calcimimetic on Adrenocorticotropic Hormone Release in Pituitary Tumor Cells. Biochemical and biophysical research Communications 238, 866-873 (1997)]. The human CaSR is stably expressed on a CHO-K1 cell clone, stimulated with a basal level of calcium and challenged with the tested compound. The level of IP1 is determined using the IP-One Terbium htrf kit (Cisbio, France). CHO-K1 cells not transfected with the CaSR fail to elicit an IP1 response upon calcium and/or compound stimulation.
The ORF coding for the human CaSR (genebank: NM_000388) was acquired from Invitrogen Corp, USA and subsequently cloned into the mammalian expression vector pCDA3.1.
CHO-K1 cells were transfected using Lipofectamine according to manufacturer's protocol (400.000 cells/well were seeded in a 6-well plate and transfected after 24 hours using 2 μg DNA and 5 μl lipofectamine). After another 24 hours the cells were detached, seeded and subjected to 1 mg/ml of G-418. Following 7 days growth single clones were picked, the CaSR expression evaluated using the 5C10 antibody against CaSR, the clones with the highest expression were selected and tested for functional response. The preferred clone was cultured according to standard procedures described in ATCC (American Type Culture Collection) protocols for CHO-K1 with the addition of 500 μg/ml G-418.
On the assay day, cells were thawed, harvested and resuspended to 4*10^6 cells/ml in stimulation buffer (containing: Hepes 10 mM, MgCl2 0.5 mM, KCl 4.2 mM, NaCl 146 mM, glucose 5.5 mM, LiCl 50 mM, BSA 0.5% at pH 7.4). Ten μl cell solution was pipetted into wells of a white 384-well plate (Perkin Elmer Optiplate) containing 2 μl compound diluted in assay buffer (containing: Hepes 10 mM, MgCl2 0.5 mM, KCl 4.2 mM, NaCl 146 mM, glucose 5.5 mM, LiCl 50 mM, CaCl2 11.4 mM at pH 7.4), resulting in a final Ca^2+ concentration of 1.9 mM. After compound stimulation for 1 hour at 37° C. and 15 min at room temperature, 10 ul of IP-One assay detection reagent (prepared as described by the IP-One assay kit manufacturer) was added and the plate was incubated for another 1 hour at room temperature. Finally the plate was read using a Perkin Elmer EnVision, according to the protocol supplied by the IP-One assay kit manufacturer. The FRET ratio was calculated by dividing the 665 nm emission signal with that of the 615 nm.
The molar concentration of a compound that produces 50% of the maximum agonistic response (the […] value) is calculated according to the equation “General sigmoidal curve with Hill slope, a to d” (Equation 1). This model describes a sigmoidal curve with an adjustable baseline. The equation can be used to fit curves where response is either increasing or decreasing with respect to the independent variable, X.
y=(a−d)/(1+(x/c)̂b)+d Equation 1.
x=concentration of tested compound y=response (%) a=min response as compound concentration approaches 0 d=max response as concentration of tested compound is increasing c=IC50 for the curve b=Hill coefficient or curve slope

Row | SMILES | EC50
1 | COc1cc([C@@H](C)N[C@H]2CC[C@@H](c3ccc(NC4CCNCC4)nc3)C2)ccc1F [Compound 107, 5-[(1R,3S)-3-[[(1R)-1-(4-Fluoro-3-methoxy-phenyl)ethyl]amino]cyclopentyl]-N-(4-piperidyl)pyridin-2-amine] | < 200 nM
2 | COc1cc([C@@H](C)N[C@H]2CC[C@@H](c3ccc(N4CCNC(=O)C4)nc3)C2)ccc1F [Compound 109, 4-[5-[(1R,3S)-3-[[(1R)-1-(4-Fluoro-3-methoxy-phenyl)ethyl]amino]cyclopentyl]-2-pyridyl]piperazin-2-one] | < 200 nM
3 | COc1cc([C@@H](C)N[C@H]2CC[C@@H](c3ccc(N4CCN(C(C)=O)CC4)nc3)C2)ccc1F [Compound 116, 1-[4-[5-[(1R,3S)-3-[[(1R)-1-(4-Fluoro-3-methoxyphenyl)ethyl]amino]cyclopentyl]-2-pyridyl]piperazin-1-yl]ethanone] | < 200 nM
4 | COc1cc([C@@H](C)N[C@H]2CC[C@@H](c3cnc(N4CCNC(=O)C4)nc3)C2)ccc1F [Compound 126, 4-[5-[(1R,3S)-3-[[(1R)-1-(4-Fluoro-3-methoxy-phenyl)ethyl]amino]cyclopentyl]pyrimidin-2-yl]piperazin-2-one] | < 200 nM
5 | COc1cc([C@@H](C)N[C@H]2CC[C@@H](c3cnc(N4CCN(C(C)=O)CC4)nc3)C2)ccc1F.O=CO [Compound 127, 1-[4-[5-[(1R,3S)-3-[[(1R)-1-(4-Fluoro-3-methoxy-phenyl)ethyl]amino]cyclopentyl]pyrimidin-2-yl]piperazin-1-yl]ethanone] | 200 to 1000 nM

Results, then the compound that gave them:

Row | EC50 | SMILES
6 | < 200 nM | C[C@@H](N[C@H]1CC[C@@H](c2ccc(NCCNCCO)nc2)C1)c1cccc2ccccc12.O=CO.O=CO.O=CO [Compound 101, 2-[2-[[5-[(1R,3S)-3-[[(1R)-1-(1-Naphthyl)ethyl]amino]cyclopentyl]-2-pyridyl]amino]ethylamino]ethanol]
7 | < 200 nM | COc1cc([C@@H](C)N[C@H]2CC[C@@H](c3ccc(NCCS(N)(=O)=O)nc3)C2)ccc1F [Compound 113, 2-[[5-[(1R,3S)-3-[[(1R)-1-(4-Fluoro-3-methoxyphenyl)ethyl]amino]cyclopentyl]-2-pyridyl]amino]ethanesulfonamide]
8 | 200 to 1000 nM | COc1cc([C@@H](C)N[C@H]2CC[C@@H](c3ccc(NCC(O)CO)nc3)C2)ccc1F (stereo partly drawn) [Compound 115, 3-[[5-[(1R,3S)-3-[[(1R)-1-(4-Fluoro-3-methoxyphenyl)ethyl]amino]cyclopentyl]-2-pyridyl]amino]propane-1,2-diol]
